# Assays:
# [1] = system: HCT116 cells (Securin+/+, securin parental, HCT116 FB); test: Growth inhibition (sulforhodamine B, 5 days) of securin parental cells; format: cell-based; details: Homo sapiens, HCT-116, 120 h, SRB
# Description: (§1) IC50 analysis was performed for selected fused bicyclic 2-aryl or 2-heteroarylthiazolyl compounds that were tested on HCT116 cells and Securin “knock out” cell lines.
# (§2) Cell Culture—HCT116 and securin “knock out” cells. HCT116 and securin “knock out” cells (D8 and F3) were grown in RPMI+5% fetal bovine serum and gentamycin. They were maintained in a humidified 37° C. incubator with 5% CO2. Since the securin “knock out” cells have active chromosomal instability, cells were used at a low passage number of 2-13 passages. At or before passage 13 a new vial of cells was thawed and used for the screen. Cell seeding—HCT116 cells and securin “knock out” cells were trypsinized and suspended in RPMI+5% FBS at a density of 27,000 cells/mL. HCT116 and securin “knock out” cells were seeded separately in wells of a 96-well plate (Falcon Cat # 35-3872) at a cell density of 4000 cells per well. Cells were seeded in 150 μL of RPMI media containing 5% FBS and gentamycin. Cell seeding was performed under aseptic conditions. Cells were allowed to attach and grow overnight in a humidified 37° C. incubator.
# (§3) Compound Dilution and Dispensation. A series of stock solutions, 10 mg/mL of fused bicyclic 2-aryl- or 2-heteroarylthiazolyl compounds to be tested, were brought to room temperature. The compounds were diluted 1:50 in RPMI+5% FBS (Highest concentration 200 μg/mL). The compounds were then serially diluted 1:3 across a deep-well titration plate resulting in final concentrations in the plate of 200, 66.7, 22.2, 7.4, 2.4, 0.8, 0.27, 0.091, 0.03, 0.01, and 0.0034 μg/mL with one well left without a compound. 50 μL of this dilution series was added to the 150 μL of cells to result in a final concentration of compound in with the cells of 50, 16.6, 5.5, 1.8, 0.6, 0.2, 0.068, 0.023, 0.0076, 0.0025, and 0.00084 μg/mL. The dilution and addition of compounds to the plates is performed using a Multimek 96 Robot (Beckman Coulter).
# (§4) Incubation and analysis. After dosing, the cells in the 96 well plates were returned to the humidified 37° C. incubator. The compounds remained on the cells for 5 days. After 5 days, the cells were fixed to the plates with the addition of 50 μL of 50% (vol/vol) Trichloro Acetic Acid ([…]). The cells were fixed at 4° C. for 1 hour. The plates were washed 5 times in distilled water and allowed to dry. The cells were stained with 0.4% sulforhodamine B (Sigma) in 1% acetic acid. The cells were stained for 15 minutes at room temperature. The plates were then washed 3 times in 1% acetic acid. The plates were dried and the dye was solubilized in 10 mM Tris at pH 8.0. The plates were read on the Absorbence 560 setting on a Victor^2 V Model 1420 Multilabel HTS counter (Perkin Elmer).
# (§5) Analysis of Results—IC50 data. Absorbence data was read off of the Victor and was converted to a percentage of the control (untreated) values. IC50 values were graphed and the point at which a 50% inhibition of the control level was determined. […] If the model was not able to determine an IC50, the IC50 was assigned to the lowest concentration that gives a 50% or greater decrease in absorbence compared to control levels. If the calculated IC50 value for a cell line exceeds the top concentration for the assay (typically 50 μg/mL), the assay was scored as >50.
# (§6) Selectivity Ratio. The Selectivity Ratio is the ratio of IC50s between the parent cell line and the knock out cell line and is always a positive number and is typically an integer.
# [2] = system: securin "knock out" cells D8 (Securin-/-); test: Growth inhibition (sulforhodamine B, 5 days) of securin knock out cells D8; format: cell-based; details: for IC50: 120 h, securin knock out D8 cells, 5 days, SRB; for Selectivity Ratio D8: IC50 HCT116 / IC50 securin KO D8
# Description: as §1, §2, §3, §4, §5, §6
# [3] = system: securin "knock out" cells F3 (Securin-/-); test: Growth inhibition (sulforhodamine B, 5 days) of securin knock out cells F3; format: cell-based; details: for IC50: 120 h, securin knock out F3 cells, 5 days, SRB; for Selectivity Ratio F3: IC50 HCT116 / IC50 securin KO F3
# Description: as §1, §2, §3, §4, §5, §6
# [4] = system: Xenografts of a Human Breast Carcinoma Cell Line (MDA-MB-361); test: Tumor xenograft study versus Herceptin (Table 2); format: in vivo
# Description: (§7) Selected fused bicyclic 2-aryl- or 2-heteroarylthiazolyl compounds of formula I were tested for their activity in a securin parental cell line (HCT116 FB) and a securin knockout (KO) cell line. […] The in-vivo activity of selected fused bicyclic 2-aryl- or 2-heteroarylthiazolyl compounds of formula I was studied in cells growing as xenografts in athymic (nude) mice. The effect of Examples 164, 166 and 167 was studied in xenografts of a human breast carcinoma cell line (MDA-MB-361).
# (§8) In-vivo Activity in Tumor Xenografts. […] The fused bicyclic 2-arylthiazolyl compounds were formulated using 0.5% Methocel™ (methylcellulose) and 0.4% Tween 80™ (polysorbate-80 and oleic acid) and administered daily orally (PO), by gavage or by syringe. Tumor mass [(length×width^2)/2] was determined every 7 days. Inhibition of tumor growth was calculated relative to conventional (vehicle treated) controls.
# [5] = system: Xenografts of a Human Breast Carcinoma Cell Line (MDA-MB-361); test: Tumor xenograft study versus Vincristine (Table 3); format: in vivo; details: days 2 through 21
# Description: as §7, §8
# The effectiveness of Examples 164, 166 and 167 versus Vincristine at controlling tumor growth was studied and the results are summarized in Table 3 and FIG. 2.
# [6] = 20 mg/kg/dose PO, days 1 through 20
# [7] = 25 mg/kg/dose IP, days 1, 3, 5 ... 19
smiles,measurement,setting,value
"CN(C)c1ccc(-c2nc3c(s2)[C@@H](O)CCC3)cc1 [Example 167, (7S)-2-[4-(dimethylamino)phenyl]-4,5,6,7-tetrahydro-1,3-benzothiazol-7-ol]",IC50,[1],100 µM
same,IC50,[2],60 µM
same,Selectivity Ratio D8,[2],2
same,IC50,[3],70.7 µM
same,Selectivity Ratio F3,[3],1
same,% T/C Day 7,[4]; [6],46%
same,% T/C Day 14,[4]; [6],61%
same,% T/C Day 21,[4]; [6],61%
same,Relative Tumor Growth Day 7,[4]; [6],0.89
same,Relative Tumor Growth Day 14,[4]; [6],1.96
same,Relative Tumor Growth Day 21,[4]; [6],6.39
same,S/T = # of Survivors/# of Treated on Day +21,[4]; [6],5/5
same,% T/C Day 8,[5]; 25 mg/kg/dose PO,61%
same,% T/C Day 15,[5]; 25 mg/kg/dose PO,68%
same,% T/C Day 22,[5]; 25 mg/kg/dose PO,113%
same,Relative Tumor Growth Day 8,[5]; 25 mg/kg/dose PO,3.18
same,Relative Tumor Growth Day 15,[5]; 25 mg/kg/dose PO,8.38
same,Relative Tumor Growth Day 22,[5]; 25 mg/kg/dose PO,24.80
same,% T/C Day 8,[5]; 50 mg/kg/dose PO,50%
same,% T/C Day 15,[5]; 50 mg/kg/dose PO,62%
same,% T/C Day 22,[5]; 50 mg/kg/dose PO,71%
same,Relative Tumor Growth Day 8,[5]; 50 mg/kg/dose PO,2.62
same,Relative Tumor Growth Day 15,[5]; 50 mg/kg/dose PO,7.61
same,Relative Tumor Growth Day 22,[5]; 50 mg/kg/dose PO,15.56
"CN(C)c1ccc(-c2nc3c(s2)C(O)CCC3)cc1 (stereo not shown) [Example 166, 2-[4-(dimethylamino)phenyl]-4,5,6,7-tetrahydro-1,3-benzothiazol-7-ol]",IC50,[1],52.5 µM
same,IC50,[2],1.7 µM
same,Selectivity Ratio D8,[2],30
same,IC50,[3],3.5 µM
same,Selectivity Ratio F3,[3],15
same,% T/C Day 7,[4]; [6],69%
same,% T/C Day 14,[4]; [6],126%
same,% T/C Day 21,[4]; [6],102%
same,Relative Tumor Growth Day 7,[4]; [6],1.33
same,Relative Tumor Growth Day 14,[4]; [6],4.05
same,Relative Tumor Growth Day 21,[4]; [6],10.76
same,S/T = # of Survivors/# of Treated on Day +21,[4]; [6],10/10
same,% T/C Day 7,[4]; [7],80%
same,% T/C Day 14,[4]; [7],93%
same,% T/C Day 21,[4]; [7],92%
same,Relative Tumor Growth Day 7,[4]; [7],1.55
same,Relative Tumor Growth Day 14,[4]; [7],3.00
same,Relative Tumor Growth Day 21,[4]; [7],9.63
same,S/T = # of Survivors/# of Treated on Day +21,[4]; [7],8/10
same,% T/C Day 8,[5]; 10 mg/kg/dose PO,60%
same,% T/C Day 15,[5]; 10 mg/kg/dose PO,60%
same,% T/C Day 22,[5]; 10 mg/kg/dose PO,100%
same,Relative Tumor Growth Day 8,[5]; 10 mg/kg/dose PO,3.16
same,Relative Tumor Growth Day 15,[5]; 10 mg/kg/dose PO,7.40
same,Relative Tumor Growth Day 22,[5]; 10 mg/kg/dose PO,22.01
same,% T/C Day 8,[5]; 30 mg/kg/dose PO,55%
same,% T/C Day 15,[5]; 30 mg/kg/dose PO,59%
same,% T/C Day 22,[5]; 30 mg/kg/dose PO,98%
same,Relative Tumor Growth Day 8,[5]; 30 mg/kg/dose PO,2.87
same,Relative Tumor Growth Day 15,[5]; 30 mg/kg/dose PO,7.34
same,Relative Tumor Growth Day 22,[5]; 30 mg/kg/dose PO,21.48
same,% T/C Day 8,[5]; 40 mg/kg/dose PO,33%
same,% T/C Day 15,[5]; 40 mg/kg/dose PO,35%
same,% T/C Day 22,[5]; 40 mg/kg/dose PO,53%
same,Relative Tumor Growth Day 8,[5]; 40 mg/kg/dose PO,1.72
same,Relative Tumor Growth Day 15,[5]; 40 mg/kg/dose PO,4.29
same,Relative Tumor Growth Day 22,[5]; 40 mg/kg/dose PO,11.74
same,Relative Tumor Growth Day 29,[5]; 40 mg/kg/dose PO,7.65
same,% T/C Day 8,[5]; 50 mg/kg/dose PO,58%
same,% T/C Day 15,[5]; 50 mg/kg/dose PO,62%
same,Relative Tumor Growth Day 8,[5]; 50 mg/kg/dose PO,3.04
same,Relative Tumor Growth Day 15,[5]; 50 mg/kg/dose PO,7.67
same,Relative Tumor Growth Day 22,[5]; 50 mg/kg/dose PO,Toxic
same,S/T = # of Survivors/# of Treated on Day +36,"[5]; 50 mg/kg/dose PO, * = sacrificed earlier due to tumor size",0/5
"C[S+]([O-])c1cc(N2CCCC2)ccc1-c1nc2c(s1)C(O)CCC2 (stereo not shown) [Example 155, 2-[2-(Methylsulfinyl)-4-pyrrolidin-1-ylphenyl]-4,5,6,7-tetrahydro-1,3-benzothiazol-7-ol]",IC50,[1],38.8 µM
same,IC50,[2],0.099 µM
same,Selectivity Ratio D8,[2],390
same,IC50,[3],0.17 µM
same,Selectivity Ratio F3,[3],224

# From patent US20090270363A1, “2-Aryl- and 2-Heteroarylthiazolyl Compounds, Methods for Their Preparation and Use Thereof” (Wyeth, priority 2008, published 2009)
